From patent US20190390220A1, “Compositions and Methods of Increasing Aphid Resistance in Transgenic Plants” (Boyce Thompson Institute, priority 2018, published 2019)

Assays:
[1] = system: A. pisum; test: flavonoid in vitro feeding bioassay on artificial diet, pea aphid; type: in vivo, Acyrthosiphon pisum; conditions: artificial diet with 0.2% daidzein, 0.01% prunetin or 0.04% formononetin; compared with control diet (DMSO) or flavones; adults
Description: (§1) A pea aphid colony (A. pisum strain CWR09/18, kindly supplied by Angela Douglas, Cornell University) was reared on faba bean plants (Viciafaba, var. Windsor; Johnny's Selected Seeds, Winslow, Me., USA) which were grown in Metromix 200 (Scotts, Marysville, Ohio, USA) in a growth chamber at the same condition with soybeans in insect rearing room at 25° C. with a 12:12 h day:night cycle (64). A soybean aphid colony (A. glycines), kindly supplied by Gustavo Macintosh at Iowa State University, was reared on soybean plants (G. max var. William 82) that were grown in same soil and conditions as described for the pea aphid colony.
(§2) For flavonoid in vitro feeding bioassays, the effects of three isoflavones, daidzein, formononetin and prunetin, as well as two flavones, apigenin and kaempferol on A. glycines and A. pisum adults were tested by rearing 30 insects on an artificial diet (65) in membrane feeding tubes. Adults were fed an artificial diet containing one of the following treatments, 0.01% apigenin, 0.2% daidzein, 0.01% prunetin, 0.04% formononetin or 0.02% kaempferol for 6 days in an insect rearing room (25° C. with a 12:12 h day:night cycle). […] The compound concentrations for diet experiments were based on their measured concentrations in soybean leaves. After 6 days of feeding, the number of surviving aphids was counted.

[2] = system: A. glycines; test: flavonoid in vitro feeding bioassay on artificial diet, soybean aphid; type: in vivo, Aphis glycines; conditions: artificial diet with 0.01% apigenin; compared with control diet (DMSO); adults
Description: as §1, §2

[3] = system: Trichoplusia ni; conditions: constitutively produced in soybean PI 227697 leaves; cited from earlier work
[4] = system: Anticarsia gemmatalis; conditions: constitutively produced in soybean PI 227697 leaves; cited from earlier work

## O=c1c(-c2ccc(O)cc2)coc2cc(O)ccc12 [daidzein]
[1]
  mortality of PA: higher mortality

## O=c1cc(-c2ccc(O)cc2)oc2cc(O)cc(O)c12 [apigenin]
[2]
  mortality of SBA: increased

## COc1cc(O)c2c(=O)c(-c3ccc(O)cc3)coc2c1 [prunetin]
[1]
  mortality of PA: higher mortality

## O=c1c(-c2ccc(O)cc2)coc2cc(O[C@@H]3O[C@H](CO)[C@@H](O)[C@H](O)[C@H]3O)cc(O)c12 [genistin]
[3]
  performance of Trichoplusia ni larvae: negatively affect the performance
[4]
  performance of Anticarsia gemmatalis larvae: negatively affect the performance
